Measured values as given in patent publication US11319321B2, “[1,2,4]triazolo[1,5-a]pyrimidine compounds as PDE2 inhibitors” (Janssen Pharmaceutica NV, priority 2016, dated 2022).
Like-named read-outs stand apart in the source and are kept apart here.

Assays:
[1] = target: T1, Human recombinant PDE2A (hPDE2A) (Homo sapiens, UniProt O00408); experiment: In vitro assay PDE2A (SPA, 3H-cGMP); assay type: biochemical
T1 construct: made in house; host or cells: Sf9 insect cells (baculovirus)
Description: Human recombinant PDE2A (hPDE2A) was expressed in Sf9 cells using a recombinant rPDE10A baculovirus construct. Cells were harvested after 48 h of infection and the hPDE2A protein was purified by metal chelate chromatography on Ni-sepharose 6FF. Tested compounds were dissolved and diluted in 100% DMSO to a concentration 100 fold of the final concentration in the assay. Compound dilutions (0.4 μl) were added in 384 well plates to 20 μl of incubation buffer (50 mM Tris pH 7.8, 8.3 mM MgCl2, 1.7 mM EGTA). 10 μl of hPDE2A enzyme in incubation buffer was added and the reaction was started by addition of 10 μl substrate to a final concentration of 10 μM cGMP and 0.01 μCi ^3H-cGMP. The reaction was incubated for 45 minutes at room temperature. […] After sedimentation of the beads during 30 minutes the radioactivity was measured in a Perkin Elmer Topcount scintillation counter and results were expressed as cpm. For blanc values the enzyme was omitted from the reaction and replaced by incubation buffer. Control values were obtained by addition of a final concentration of 1% DMSO instead of compound.

hPDE3B = experiment: In vitro assay PDE3 (SPA, 3H-cAMP); assay type: biochemical, human; details: 0.4 μM cAMP substrate; for hPDE3B Emax: in % (unit assumed)
hPDE10A2 = hPDE10A2 (Homo sapiens, UniProt Q9Y233); experiment: biochemical; details: 60 nM cAMP substrate; for IC50: read-out: hPDE10A2 or rPDE10A2 pIC50 (converted); for Emax: read-out: hPDE10A2 or rPDE10A2 Emax, human clone
hPDE10A2, sequence (Q9Y233 267-1055): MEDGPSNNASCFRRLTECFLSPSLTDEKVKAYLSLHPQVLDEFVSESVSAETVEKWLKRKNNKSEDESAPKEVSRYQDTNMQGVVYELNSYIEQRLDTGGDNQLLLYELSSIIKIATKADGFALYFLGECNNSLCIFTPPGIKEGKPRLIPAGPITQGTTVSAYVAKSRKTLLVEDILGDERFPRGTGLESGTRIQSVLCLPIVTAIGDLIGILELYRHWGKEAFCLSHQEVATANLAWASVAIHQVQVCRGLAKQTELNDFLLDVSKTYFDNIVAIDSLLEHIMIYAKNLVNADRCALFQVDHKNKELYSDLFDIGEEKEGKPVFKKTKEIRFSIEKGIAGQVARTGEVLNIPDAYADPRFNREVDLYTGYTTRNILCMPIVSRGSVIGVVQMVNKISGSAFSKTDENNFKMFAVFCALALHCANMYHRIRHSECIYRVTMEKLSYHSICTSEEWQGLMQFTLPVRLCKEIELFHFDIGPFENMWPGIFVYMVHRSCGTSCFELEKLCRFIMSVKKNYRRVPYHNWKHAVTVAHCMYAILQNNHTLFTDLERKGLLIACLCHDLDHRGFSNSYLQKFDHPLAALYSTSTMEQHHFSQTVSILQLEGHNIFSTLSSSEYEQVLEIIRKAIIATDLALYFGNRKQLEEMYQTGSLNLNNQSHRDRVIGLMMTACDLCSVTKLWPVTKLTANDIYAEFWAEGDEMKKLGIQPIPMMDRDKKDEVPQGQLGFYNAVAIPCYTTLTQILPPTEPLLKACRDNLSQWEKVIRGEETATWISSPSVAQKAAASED
Description: Rat recombinant PDE10A (rPDE10A2) was expressed in Sf9 cells using a recombinant rPDE10A baculovirus construct. Cells were harvested after 48 h of infection and the rPDE10A protein was purified by metal chelate chromatography on Ni-sepharose 6FF. Tested compounds were dissolved and diluted in 100% DMSO to a concentration 100 fold of the final concentration in the assay. Human recombinant PDE10A ([…]) was expressed in Sf9 cells using a recombinant hPDE10A baculovirus that was made and amplified in house. Cells were harvested after 72 h of infection and the hPDE10A protein was purified by metal chelate chromatography on Ni-sepharose. Compound dilutions (0.4 μl) were added in 384 well plates to 20 μl of incubation buffer (50 mM Tris pH 7.8, 8.3 mM MgCl2, 1.7 mM EGTA). 10 μl of rPDE10A or hPDE10A enzyme in incubation buffer was added and the reaction was started by addition of 10 μl substrate to a final concentration of 60 nM cAMP and […] ^3H-cAMP. The reaction was incubated for 60 minutes at room temperature. After incubation, the reaction was stopped with 20 μl of stop solution consisting of 17.8 mg/ml PDE SPA (scintillation proximity assay) beads. After sedimentation of the beads during 30 minutes the radioactivity was measured in a Perkin Elmer Topcount scintillation counter and results were expressed as cpm. For blanc values the enzyme was omitted from the reaction and replaced by incubation buffer. Control values were obtained by addition of a final concentration of 1% DMSO instead of compound. A best fit curve is fitted by a minimum sum of squares method to the plot of % of control value substracted with blanc value versus compound concentration and the half maximal inhibitory concentration (IC50) value is derived from this curve.

PDE2A = target: T2, PDE2A (Rattus norvegicus, UniProt Q01062); experiment: PDE2 occupancy by ex-vivo autoradiography with [3H]B-17a; assay type: in vivo; details: male Wistar rats, 10 mg/kg SC (subcutaneous), striatum, percentage occupancy, read-out: PDE2 occupancy at 10 mg/kg
T2 construct: Twenty μm-thick striatal sections were cut; from tissue; host or cells: rat brain, striatal sections
T2 sequence (Q01062 1-928): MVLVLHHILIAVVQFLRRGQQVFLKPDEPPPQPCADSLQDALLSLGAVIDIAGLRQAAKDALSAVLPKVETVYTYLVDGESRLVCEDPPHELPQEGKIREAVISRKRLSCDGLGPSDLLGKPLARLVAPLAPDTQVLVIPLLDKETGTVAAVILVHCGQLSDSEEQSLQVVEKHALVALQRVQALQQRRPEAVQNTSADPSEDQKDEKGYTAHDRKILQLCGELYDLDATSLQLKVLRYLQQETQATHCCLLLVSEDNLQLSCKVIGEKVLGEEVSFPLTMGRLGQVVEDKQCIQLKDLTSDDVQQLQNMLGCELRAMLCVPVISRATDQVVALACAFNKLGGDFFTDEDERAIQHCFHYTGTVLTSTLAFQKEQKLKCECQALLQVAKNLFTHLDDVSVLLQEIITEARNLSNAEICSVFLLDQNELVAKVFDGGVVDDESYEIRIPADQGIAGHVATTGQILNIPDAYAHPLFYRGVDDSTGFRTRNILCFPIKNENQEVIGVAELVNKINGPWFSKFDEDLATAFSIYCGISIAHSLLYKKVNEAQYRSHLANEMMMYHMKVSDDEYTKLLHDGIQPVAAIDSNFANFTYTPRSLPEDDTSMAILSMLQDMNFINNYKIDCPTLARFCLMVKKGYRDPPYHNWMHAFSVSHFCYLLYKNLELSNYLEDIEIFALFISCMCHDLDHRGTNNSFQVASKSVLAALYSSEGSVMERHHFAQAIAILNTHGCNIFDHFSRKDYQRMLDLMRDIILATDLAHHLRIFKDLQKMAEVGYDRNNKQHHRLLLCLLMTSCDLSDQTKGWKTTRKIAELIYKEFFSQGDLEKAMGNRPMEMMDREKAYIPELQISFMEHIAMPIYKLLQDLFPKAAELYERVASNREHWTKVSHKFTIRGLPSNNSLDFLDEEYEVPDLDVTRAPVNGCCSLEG
Description: Brains were immediately removed from the skull and rapidly frozen in dry-ice cooled 2-methylbutane (−40° C.).
After thawing, sections were dried under a cold stream of air and incubated for one minute with 30 nM [^3H]B-17a in Tris-HCl (50 mM, pH7.4) containing 0.3% BSA. Brain sections from drug-treated and vehicle-treated animals were incubated in parallel. […] After incubation, the excess of [^3H]B-17a was washed off in ice-cold buffer 2 times 10 minutes, followed by a quick dip in distilled water. The sections were then dried under a stream of cold air.
Brain sections were loaded in a […] (Biospace, Paris) for 4 h and radioactivity emerging from delineated brain area was quantified using the Beta vision program (Biospace, Paris). Specific binding was determined as the difference between total binding in the striatum and non-specific binding in the cerebellum. Percentage receptor occupancy of the drug administered to the animal corresponded to 100% minus the percentage receptor labeled in the treated animal. For the determination of ED50-values, the percentage of receptor occupancy was plotted against dose and the sigmoidal log dose-effect curve of best fit was calculated by non-linear regression analysis, using the GraphPad Prism program.

[2] = hPDE2A pIC50, 10 μM cGMP substrate
[3] = 10 μM cGMP substrate, read-out: hPDE2A pIC50 (converted)

T1 sequence (O00408 whole entry): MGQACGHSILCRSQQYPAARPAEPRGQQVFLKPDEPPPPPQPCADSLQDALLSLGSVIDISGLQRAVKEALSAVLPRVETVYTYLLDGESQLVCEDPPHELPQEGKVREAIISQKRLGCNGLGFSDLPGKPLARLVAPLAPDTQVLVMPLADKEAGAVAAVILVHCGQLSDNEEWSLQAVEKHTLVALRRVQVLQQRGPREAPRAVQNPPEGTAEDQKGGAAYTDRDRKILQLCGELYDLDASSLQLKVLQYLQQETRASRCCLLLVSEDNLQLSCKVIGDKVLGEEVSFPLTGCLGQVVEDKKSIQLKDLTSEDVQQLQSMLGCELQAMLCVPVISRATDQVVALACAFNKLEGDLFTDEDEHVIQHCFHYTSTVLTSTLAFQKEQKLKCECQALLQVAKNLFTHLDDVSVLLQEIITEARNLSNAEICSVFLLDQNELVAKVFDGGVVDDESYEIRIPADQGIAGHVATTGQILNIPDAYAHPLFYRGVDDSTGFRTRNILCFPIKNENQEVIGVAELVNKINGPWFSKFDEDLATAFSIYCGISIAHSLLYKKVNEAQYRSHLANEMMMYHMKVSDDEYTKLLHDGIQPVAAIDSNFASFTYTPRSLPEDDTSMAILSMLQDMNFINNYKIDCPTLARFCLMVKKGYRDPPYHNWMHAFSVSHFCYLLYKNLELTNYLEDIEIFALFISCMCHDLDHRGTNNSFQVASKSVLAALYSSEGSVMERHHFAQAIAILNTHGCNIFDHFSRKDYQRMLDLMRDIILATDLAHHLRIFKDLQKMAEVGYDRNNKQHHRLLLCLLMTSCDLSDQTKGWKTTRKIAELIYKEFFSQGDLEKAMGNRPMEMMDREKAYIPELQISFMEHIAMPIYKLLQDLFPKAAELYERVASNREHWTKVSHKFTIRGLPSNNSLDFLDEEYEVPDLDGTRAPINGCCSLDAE

Structure (SMILES)	hPDE2A Emax ([1]; 10 μM cGMP substrate)	IC50 [1, 2] [nM]	hPDE3B pIC50 (hPDE3B)	hPDE3B Emax (hPDE3B)	hPDE10A2 or rPDE10A2 Emax (hPDE10A2; human clone)	IC50 (hPDE10A2; human clone) [nM]	receptor occupancy at 10 mg/kg (PDE2A) [%]	Emax ([1]; 10 μM cGMP substrate) [%]	Emax (hPDE10A2) [%]	IC50 [1, 3] [nM]	IC50 [1] [nM]
Cc1cc(C(C)N2CC[C@@H](C)[C@H](c3cc(C(F)F)nc4ncnn34)C2)cc(C)n1 (single isomer, unassigned) [Compound 1b, 5-(difluoromethyl)-7-[(3 S,4R)-1-[(1S*)-1-(2,6-dimethyl-4-pyridyl)ethyl]-4-methyl-3-piperidyl]-[1,2,4]triazolo[1,5-a]pyrimidine]	100	11.7	<5	19	80	2880	42	–	–	–	–
C[C@@H]1CCN(Cc2cc3ccccc3cn2)C[C@H]1c1cc(C(F)F)nc2ncnn12 [Compound 8]	–	8.51	5.09	61	–	1480	0	100	85	–	–
C[C@]1(c2cc(C(F)F)nc3ncnn23)CCCN(Cc2ccc(F)c(F)c2)C1.Cl (stereo in doubt) [Compound 54]	–	–	<5	5	–	> 10000	–	15	9	~8910	–
C[C@H]1CCN(Cc2ccc(F)c(F)c2)C[C@@H]1c1cc(C(F)F)nc2ncnn12.Cl [Compound 41]	–	–	<5	20	–	> 10000	–	33	15	1950	–
C[C@H]1CCN(Cc2cc3ccccc3o2)C[C@@H]1c1cc(C(F)F)nc2ncnn12.Cl [Compound 55]	–	2240	<5	40	–	> 10000	–	25	12	–	–
Cc1cc(CN2CC[C@@H](C)[C@H](c3cc(C(F)F)nc4ncnn34)C2)ccn1.Cl [Compound 15]	–	–	<4.52	17	–	~10000	–	95	45	–	95.5
Cc1cc(CN2CCC(C)C(F)(c3cc(C(F)F)nc4ncnn34)C2)cc(C)n1 (centres unmarked) [Compound 51]	–	2950	5.11	67	–	> 10000	–	91	28	–	–
COc1ccc(CN2CC[C@@H](C)[C@H](c3cc(C(F)F)nc4ncnn34)C2)c(OC)c1.Cl [Compound 45]	–	955	<5	6	–	> 10000	–	49	37	–	–
Cc1cc(CN2CC[C@H](C)[C@@H](c3cc(C(F)F)nc4ncnn34)C2)ccn1.Cl [Compound 16]	–	–	<5	23	–	> 10000	–	4	10	–	5890
Cc1cc(CN2CC[C@@H](C)[C@H](c3cc(C(F)F)nc4ncnn34)C2)cc(C2CC2)n1 [Compound 9]	–	–	<5	34	–	1580	–	100	83	5.25	–
Cc1nn(C)cc1CN1CC[C@@H](C)[C@H](c2cc(C(F)F)nc3ncnn23)C1.Cl [Compound 52]	–	~2340	<5	1	–	> 10000	–	31	9	–	–
C[C@@H]1CCN(CC2CCOCC2)C[C@H]1c1cc(C(F)F)nc2ncnn12.Cl [Compound 26]	–	~3090	<5	12	–	> 10000	–	27	12	–	–
C[C@@H]1CCN(Cc2ccccc2)C[C@H]1c1cc(C(F)F)nc2ncnn12 [Compound 20]	–	–	<5	23	–	> 10000	–	97	26	457	–
C[C@@H]1CCN(Cc2cc3ccccc3o2)C[C@H]1c1cc(C(F)F)nc2ncnn12.Cl [Compound 38]	–	162	<5	28	–	4680	–	88	69	–	–
CC(C)CN1CC[C@@H](C)[C@H](c2cc(C(F)F)nc3ncnn23)C1 [Compound 29]	–	~8710	<5	−14	–	> 10000	–	3	3	–	–
Cc1cc([C@@H](C)N2CC[C@@H](C)[C@H](c3cc(C(F)F)nc4ncnn34)C2)cc(Cl)n1 (single isomer, unassigned) [Compound 5]	–	–	5.13	55	–	1510	–	100	87	77.6	–
C[C@@H]1CCN(Cc2ccc(F)c(F)c2)C[C@@H]1c1cc(C(F)F)nc2ncnn12 [Compound 42]	–	–	<5	19	–	> 10000	–	22	45	3390	–
Cc1cc(CN2CC[C@H](C)[C@@H](c3cc(C(F)F)nc4ncnn34)C2)cc(Cl)n1.Cl [Compound 11]	–	–	~5.4	71	–	~10200	–	19	47	–	3890
C[C@@H]1CCN(Cc2ccc(C#N)cc2)C[C@H]1c1cc(C(F)F)nc2ncnn12 [Compound 21]	–	–	<5	24	–	~10000	–	97	48	–	468
